Experimental data taken from patent EP0238060B1, “Cephalosporin derivatives, processes for their preparation and antibacterial agents” (Banyu Pharmaceutical Co., Ltd., priority 1986, dated 1987).
Values after ≈ are worked out from the molar mass of the structure shown.

How the values were obtained:
Experiment in all cases: In vitro antibacterial activity, agar plate dilution method (MIC)
[1] = system: Ps.cepacia 23; type: cell-based, Pseudomonas cepacia; details: Burkholderia cepacia; Ps.cepacia 23; Mueller Hinton agar, inoculum 10⁶ CFU/ml, 37°C, 16 hours; read-out: Minimum Inhibitory Concentration (MIC: µg/ml)
Procedure: (§1) The in vitro antibacterial activities of the compounds of the present invention against various microorganisms, were measured by the following agar plate dilution method. One platinum loopfull of each test microorganism incubated overnight in Mueller Hinton broth, was inoculated to Mueller Hinton agar (inoculum size: l0⁶ CFU/ml). Such culture media containing various antibiotics in various concentrations were prepared. After incubation at 37°C for l6 hours, the minimum inhibitory concentrations (MIC: µg/ml) were measured. As comparative compounds, Cefotaxime, Ceftazidime and the compounds of Reference Examples l to 4 were employed.

[2] = system: M.morganii GN5407; type: cell-based; details: Morganella morganii; M.morganii GN5407 (β-Lactamase-producing strain); Mueller Hinton agar, inoculum 10⁶ CFU/ml, 37°C, 16 hours; read-out: Minimum Inhibitory Concentration (MIC: µg/ml)
Procedure: as §1

[3] = system: E.coli CSH(RE45); type: cell-based; details: Escherichia coli, 16 h, read-out: Minimum Inhibitory Concentration (MIC: µg/ml)
Procedure: as §1

[4] = system: C.freundii GN346/16; type: cell-based; details: Citrobacter freundii; C.freundii GN346/16; Mueller Hinton agar, inoculum 10⁶ CFU/ml, 37°C, 16 hours; read-out: Minimum Inhibitory Concentration (MIC: µg/ml)
Procedure: as §1

[5] = system: M.luteus ATCC9341; type: cell-based; details: Micrococcus luteus; M.luteus ATCC9341; Mueller Hinton agar, inoculum 10⁶ CFU/ml, 37°C, 16 hours; read-out: Minimum Inhibitory Concentration (MIC: µg/ml)
Procedure: as §1

[6] = system: P.vulgaris No. 33; type: cell-based; details: Proteus vulgaris; P.vulgaris No. 33 (β-Lactamase-producing strain); Mueller Hinton agar, inoculum 10⁶ CFU/ml, 37°C, 16 hours; read-out: Minimum Inhibitory Concentration (MIC: µg/ml)
Procedure: as §1

[7] = system: S.marcescens No. 16-2; type: cell-based; details: Serratia marcescens, NO.162; S.marcescens No. 16-2 (β-Lactamase-producing strain); Mueller Hinton agar, inoculum 10⁶ CFU/ml, 37°C, 16 hours; read-out: Minimum Inhibitory Concentration (MIC: µg/ml)
Procedure: as §1

[8] = system: K.pneumoniae PCI-602; type: cell-based; details: Klebsiella pneumoniae, PCI602; K.pneumoniae PCI-602; Mueller Hinton agar, inoculum 10⁶ CFU/ml, 37°C, 16 hours; read-out: Minimum Inhibitory Concentration (MIC: µg/ml)
Procedure: as §1

[9] = system: Ps.aeruginosa AK 109; type: cell-based; details: Pseudomonas aeruginosa, AK109; Ps.aeruginosa AK 109; Mueller Hinton agar, inoculum 10⁶ CFU/ml, 37°C, 16 hours; read-out: Minimum Inhibitory Concentration (MIC: µg/ml)
Procedure: as §1

[10] = system: C.freundii GN346; type: cell-based; details: Citrobacter freundii; C.freundii GN346 (β-Lactamase-producing strain); Mueller Hinton agar, inoculum 10⁶ CFU/ml, 37°C, 16 hours; read-out: Minimum Inhibitory Concentration (MIC: µg/ml)
Procedure: as §1

[11] = system: E.coli NIHJ JC2; type: cell-based; details: Escherichia coli, NIHJJC2; E.coli NIHJ JC2; Mueller Hinton agar, inoculum 10⁶ CFU/ml, 37°C, 16 hours; read-out: Minimum Inhibitory Concentration (MIC: µg/ml)
Procedure: as §1

[12] = system: E.cloacae 963; type: cell-based; details: Enterobacter cloacae; E.cloacae 963; Mueller Hinton agar, inoculum 10⁶ CFU/ml, 37°C, 16 hours; read-out: Minimum Inhibitory Concentration (MIC: µg/ml)
Procedure: as §1

[13] = system: Ps.aeruginosa AKR17; type: cell-based; details: Pseudomonas aeruginosa; Ps.aeruginosa AKR17; Mueller Hinton agar, inoculum 10⁶ CFU/ml, 37°C, 16 hours; read-out: Minimum Inhibitory Concentration (MIC: µg/ml)
Procedure: as §1

[14] = system: A.calcoaceticus No. 4; type: cell-based; details: Acinetobacter calcoaceticus; A.calcoaceticus No. 4; Mueller Hinton agar, inoculum 10⁶ CFU/ml, 37°C, 16 hours; read-out: Minimum Inhibitory Concentration (MIC: µg/ml)
Procedure: as §1

[15] = system: E.coli GN5482; type: cell-based; details: Escherichia coli; E.coli GN5482 (β-Lactamase-producing strain); Mueller Hinton agar, inoculum 10⁶ CFU/ml, 37°C, 16 hours; read-out: Minimum Inhibitory Concentration (MIC: µg/ml)
Procedure: as §1

[16] = system: K.oxytoca GN10650; type: cell-based; details: Klebsiella oxytoca; K.oxytoca GN10650 (β-Lactamase-producing strain); Mueller Hinton agar, inoculum 10⁶ CFU/ml, 37°C, 16 hours; read-out: Minimum Inhibitory Concentration (MIC: µg/ml)
Procedure: as §1

[17] = system: S.marcescens IAM 1184; type: cell-based; details: Serratia marcescens, IAM1184; S.marcescens IAM 1184; Mueller Hinton agar, inoculum 10⁶ CFU/ml, 37°C, 16 hours; read-out: Minimum Inhibitory Concentration (MIC: µg/ml)
Procedure: as §1

[18] = system: P.vulgaris HX-19; type: cell-based; details: Proteus vulgaris, HX19; P.vulgaris HX-19; Mueller Hinton agar, inoculum 10⁶ CFU/ml, 37°C, 16 hours; read-out: Minimum Inhibitory Concentration (MIC: µg/ml)
Procedure: as §1

[19] = system: S.aureus JS1; type: cell-based; details: Staphylococcus aureus; S.aureus JS1 (β-Lactamase-producing strain); Mueller Hinton agar, inoculum 10⁶ CFU/ml, 37°C, 16 hours; read-out: Minimum Inhibitory Concentration (MIC: µg/ml)
Procedure: as §1

[20] = system: S.aureus BB5703; type: cell-based; details: Staphylococcus aureus; S.aureus BB5703; Mueller Hinton agar, inoculum 10⁶ CFU/ml, 37°C, 16 hours; read-out: Minimum Inhibitory Concentration (MIC: µg/ml)
Procedure: as §1

[21] = system: K.pneumoniae No. 42; type: cell-based; details: Klebsiella pneumoniae; K.pneumoniae No. 42 (β-Lactamase-producing strain); Mueller Hinton agar, inoculum 10⁶ CFU/ml, 37°C, 16 hours; read-out: Minimum Inhibitory Concentration (MIC: µg/ml)
Procedure: as §1

[22] = system: Ps.aeruginosa IFO3445; type: cell-based; details: Pseudomonas aeruginosa; Ps.aeruginosa IFO3445; Mueller Hinton agar, inoculum 10⁶ CFU/ml, 37°C, 16 hours; read-out: Minimum Inhibitory Concentration (MIC: µg/ml)
Procedure: as §1

[23] = system: E.cloacae Nek 39; type: cell-based; details: Enterobacter cloacae, NEK39; E.cloacae Nek 39 (β-Lactamase-producing strain); Mueller Hinton agar, inoculum 10⁶ CFU/ml, 37°C, 16 hours; read-out: Minimum Inhibitory Concentration (MIC: µg/ml)
Procedure: as §1

[24] = system: E.coli CSH2 (RK1); type: cell-based; details: Escherichia coli, 16 h, read-out: Minimum Inhibitory Concentration (MIC: µg/ml)
Procedure: as §1

[25] = system: S.epidermidis IAM12012; type: cell-based; details: Staphylococcus epidermidis; S.epidermidis IAM12012; Mueller Hinton agar, inoculum 10⁶ CFU/ml, 37°C, 16 hours; read-out: Minimum Inhibitory Concentration (MIC: µg/ml)
Procedure: as §1

[26] = system: S.aureus 209P NIHJ-JC1; type: cell-based; details: Staphylococcus aureus; S.aureus 209P NIHJ-JC1; Mueller Hinton agar, inoculum 10⁶ CFU/ml, 37°C, 16 hours; read-out: Minimum Inhibitory Concentration (MIC: µg/ml)
Procedure: as §1

[27] = system: Ps.maltophilia GN 12873; type: cell-based, Pseudomonas maltophilia; details: Stenotrophomonas maltophilia, GN12873; Ps.maltophilia GN 12873 (β-Lactamase-producing strain); Mueller Hinton agar, inoculum 10⁶ CFU/ml, 37°C, 16 hours; read-out: Minimum Inhibitory Concentration (MIC: µg/ml)
Procedure: as §1

Row | Structure (SMILES) | MIC [1] [µg/mL] | MIC [2] [µg/mL] | MIC [3] [µg/mL] | MIC [4] [µg/mL] | MIC [6] [µg/mL] | MIC [7] [µg/mL] | MIC [8] [µg/mL] | MIC [9] [µg/mL] | MIC [10] [µg/mL] | MIC [11] [µg/mL] | MIC [12] [µg/mL] | MIC [13] [µg/mL] | MIC [14] [µg/mL] | MIC [15] [µg/mL] | MIC [16] [µg/mL] | MIC [17] [µg/mL] | MIC [18] [µg/mL] | MIC [19] [µg/mL] | MIC [20] [µg/mL] | MIC [21] [µg/mL] | also measured
1 | CO/N=C(\C(=O)N[C@@H]1C(=O)N2C(C(=O)O)=C(COC(C)=O)CS[C@H]12)c1csc(N)n1 [Cefotaxime, reference compound] | 6.25 (≈ 13.7 µM) | 0.05 (≈ 0.11 µM) | 0.2 (≈ 0.439 µM) | 0.1 (≈ 0.22 µM) | 0.025 (≈ 0.0549 µM) | 25 (≈ 54.9 µM) | < 0.006 | 12.5 (≈ 27.4 µM) | 25 (≈ 54.9 µM) | 0.05 (≈ 0.11 µM) | 0.1 (≈ 0.22 µM) | > 100 | 25 (≈ 54.9 µM) | 0.39 (≈ 0.856 µM) | 0.78 (≈ 1.71 µM) | 0.05 (≈ 0.11 µM) | < 0.006 | 25 (≈ 54.9 µM) | 3.12 (≈ 6.85 µM) | 0.05 (≈ 0.11 µM) | MIC [5]: 0.05 µg/mL (≈ 0.11 µM); MIC [22]: 3.12 µg/mL (≈ 6.85 µM); MIC [23]: 3.12 µg/mL (≈ 6.85 µM); MIC [24]: 0.05 µg/mL (≈ 0.11 µM); MIC [25]: 0.39 µg/mL (≈ 0.856 µM); MIC [26]: 1.56 µg/mL (≈ 3.43 µM); MIC [27]: > 100 µg/mL
2 | CON=C(C(=O)NC1C(=O)N2C(C(=O)[O-])=C(C[n+]3ccc4c(O)cccc4c3)CS[C@H]12)c1csc(N)n1 (stereo partly drawn) [Reference Ex. 2, 7-[2-(2-aminothiazol-4-yl)-2-methoxyiminoacetamido]-3-(5-hydroxy-2-isoquinolinio)methyl-3-cephem-4-carboxylate, reference compound] | 6.25 (≈ 11.6 µM) | 0.025 (≈ 0.0462 µM) | 1.56 (≈ 2.89 µM) | 0.1 (≈ 0.185 µM) | 0.1 (≈ 0.185 µM) | 3.12 (≈ 5.77 µM) | < 0.006 | 3.12 (≈ 5.77 µM) | 6.25 (≈ 11.6 µM) | 0.025 (≈ 0.0462 µM) | 0.025 (≈ 0.0462 µM) | > 100 | 12.5 (≈ 23.1 µM) | 0.2 (≈ 0.37 µM) | 12.5 (≈ 23.1 µM) | 0.025 (≈ 0.0462 µM) | < 0.006 | 6.25 (≈ 11.6 µM) | 3.12 (≈ 5.77 µM) | 0.1 (≈ 0.185 µM) | MIC [22]: 3.12 µg/mL (≈ 5.77 µM); MIC [23]: 0.78 µg/mL (≈ 1.44 µM); MIC [24]: 0.025 µg/mL (≈ 0.0462 µM); MIC [26]: 0.39 µg/mL (≈ 0.721 µM); MIC [27]: > 100 µg/mL
3 | CON=C(C(=O)NC1C(=O)N2C(C(=O)[O-])=C(C[n+]3ccc4cccc(O)c4c3)CS[C@H]12)c1csc(N)n1 (stereo partly drawn) [Reference Ex. 3, 7-[2-(2-aminothiazol-4-yl)-2-methoxyiminoacetamido]-3-(8-hydroxy-2-isoquinolinio)methyl-3-cephem-4-carboxylate, reference compound] | 6.25 (≈ 11.6 µM) | 0.025 (≈ 0.0462 µM) | 0.39 (≈ 0.721 µM) | 0.1 (≈ 0.185 µM) | 0.05 (≈ 0.0925 µM) | 3.12 (≈ 5.77 µM) | < 0.006 | 50 (≈ 92.5 µM) | 12.5 (≈ 23.1 µM) | 0.05 (≈ 0.0925 µM) | 0.05 (≈ 0.0925 µM) | > 100 | 25 (≈ 46.2 µM) | 0.39 (≈ 0.721 µM) | 3.12 (≈ 5.77 µM) | 0.025 (≈ 0.0462 µM) | 0.0125 (≈ 0.0231 µM) | 25 (≈ 46.2 µM) | 3.12 (≈ 5.77 µM) | 0.1 (≈ 0.185 µM) | MIC [22]: 12.5 µg/mL (≈ 23.1 µM); MIC [23]: 0.78 µg/mL (≈ 1.44 µM); MIC [24]: 0.025 µg/mL (≈ 0.0462 µM); MIC [26]: 0.78 µg/mL (≈ 1.44 µM); MIC [27]: > 100 µg/mL
4 | CC(C)(ON=C(C(=O)NC1C(=O)N2C(C(=O)[O-])=C(C[n+]3ccc4c(O)cccc4c3)CSC12)c1csc(N)n1)C(=O)O (stereo not drawn) [Reference Ex. 4, sodium 7-[2-(2-aminothiazol-4-yl)-2-(l-carboxylato-l-methylethoxyimino)acetamido]-3-(5-hydroxy-2-isoquinolinio)methyl-3-cephem-4-carboxylate, reference compound] | 1.56 | 0.1 | 0.39 | 1.56 | 0.1 | 6.25 | 0.2 | 6.25 | > 100 | 0.78 | 0.78 | > 100 | 25 | 6.25 | 0.39 | 0.2 | 0.0125 | 100 | 100 | 0.78 | MIC [22]: 6.25 µg/mL; MIC [23]: 12.5 µg/mL; MIC [24]: 0.39 µg/mL; MIC [26]: 12.5 µg/mL; MIC [27]: 50 µg/mL
